Results on two substances are retold here after patent EP0583821A1, “Atriopeptins, guanylate cyclase activators, and phosphodiesterase inhibitors as treatment for glaucoma, hydrocephalus and cerebral edema (cranial fluid volume dysfunction)” (THE GENERAL HOSPITAL CORPORATION, priority 1987, dated 1988).

The target in the experiment is T1, guanylate cyclase (Oryctolagus cuniculus, UniProt G1TXB5).
T1 sequence (G1TXB5 28-1056): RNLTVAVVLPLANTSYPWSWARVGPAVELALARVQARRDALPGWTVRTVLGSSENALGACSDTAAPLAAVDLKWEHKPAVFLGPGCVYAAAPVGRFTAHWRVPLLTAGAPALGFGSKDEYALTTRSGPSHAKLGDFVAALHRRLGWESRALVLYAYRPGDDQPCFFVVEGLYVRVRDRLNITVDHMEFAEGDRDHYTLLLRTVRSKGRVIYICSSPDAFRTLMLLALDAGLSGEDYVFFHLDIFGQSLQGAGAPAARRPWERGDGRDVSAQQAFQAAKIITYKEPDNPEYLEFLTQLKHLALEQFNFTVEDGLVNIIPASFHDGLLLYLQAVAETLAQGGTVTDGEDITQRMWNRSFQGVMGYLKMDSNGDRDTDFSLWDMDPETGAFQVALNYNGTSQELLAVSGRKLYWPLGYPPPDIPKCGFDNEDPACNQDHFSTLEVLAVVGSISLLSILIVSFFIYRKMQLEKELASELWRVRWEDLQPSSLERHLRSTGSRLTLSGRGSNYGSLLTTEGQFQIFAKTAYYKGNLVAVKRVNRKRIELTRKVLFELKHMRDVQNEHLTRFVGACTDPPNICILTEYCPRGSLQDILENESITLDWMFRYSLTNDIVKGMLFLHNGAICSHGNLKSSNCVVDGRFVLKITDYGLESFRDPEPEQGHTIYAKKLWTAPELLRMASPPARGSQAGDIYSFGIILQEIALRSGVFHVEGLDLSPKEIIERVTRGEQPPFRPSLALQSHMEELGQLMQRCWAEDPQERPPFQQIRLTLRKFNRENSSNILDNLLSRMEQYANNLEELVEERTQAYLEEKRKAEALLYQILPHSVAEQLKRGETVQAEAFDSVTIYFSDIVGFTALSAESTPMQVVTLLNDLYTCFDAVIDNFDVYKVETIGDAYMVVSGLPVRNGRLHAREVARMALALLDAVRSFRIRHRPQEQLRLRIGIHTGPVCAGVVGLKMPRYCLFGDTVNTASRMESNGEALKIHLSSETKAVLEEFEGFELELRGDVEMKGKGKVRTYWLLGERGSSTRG
The experiment is described as follows: Atriopeptin-activated guanylate cyclase in kidney membrane (P1) fractions. The class given is biochemical, rabbit. More on the design: tissues were homogenized (10 mg wet weight per milliliter); from tissue; host or cells: rabbit cerebral microvessels, choroid plexus, kidney, ciliary process, pia-arachnoid, cerebellum; 100,000 g P1 pellet. The conditions noted are these: mean ± range of duplicate determinations. The protocol:
The effect of rANP on membrane-bound guanylate cyclase and adenylate cyclase activity in various brain-barrier tissues and tissue fractions from rabbit was compared with its activity in cerebrum and cerebellum. Guanylate cyclase was measured as the rate of cyclic GMP formation by modifications of the technique of Waldman et al., supra, incorporated herein by reference. Briefly, tissues were homogenized (10 mg wet weight per milliliter) in 50 mM tris-HCl, pH 8.0, 1 mM EDTA, 1 mM dithiothreitol, and 250 mM sucrose and centrifuged at 100,000g to obtain a P1 pellet. Reaction tubes contained (in 0.3 ml), 50 mM tris, pH 7.6, 6 mM MnCl₂, 0.5 mM 3-isobutyl, 1-methylxanthine (IBMX), 10 mM theophylline, 3 mM GTP, hormone (in 0.03 ml containing 2.5 mM ascorbic acid and 0.1% bovine serum albumin), and 0.06 ml of P1 fraction (40 to 60 ug of protein). The reaction (4 minutes at 30°C) was started by addition of GTP and terminated by addition of 0.3 ml of 150 mM sodium acetate (pH 4.0) and boiling for 3 minutes. Cyclic GMP formed was subsequently measured by radioimmunoassay as described in example 6, infra. Under these conditions, guanylate cyclase activity was linear with time and tissue concentration. Adenylate cyclase activity in P1 fractions was measured according to the method described by Nathanson, et al., Science; 204:843 (1979); Mol. Pharmacol. 18:199 (1980), see Figure 1C . […] Neurosci. Abstr., 10, 899 (1984); Nathanson, et al., Soc. Neurosci. Abstr., 12, 1257 (1986), incorporated herein by reference, but with a lower concentration (0.025%) of trypsin and a rotating tissue tumbler which allowed cleaner fractionation of epithelial cells from erythrocytes and vascular components.
Ciliary process tips were obtained from male, 3-4 kg, New Zealand white rabbits, immediately following sacrifice with an overdose of ether, as described in Nathanson, Invest. Ophthal. Vis. Sci., 21:7981 (1982). […]
Atriopeptin-activated guanylate cyclase activity was measured as the rate of conversion of GTP to cyclic GMP. […]

In the case of “Ser-Leu-Arg-Arg-atriopeptin III (APIII) [rANP 1-28]”, the “Vmax Stimulation (%) of Guanylate Cyclase Kidney” value came out at 129 ± 25%.
The figure for “rANP 13-28 (DRIGAQSGLGCNSFRY; Atrial natriuretic peptide; UniProt P01161 135-150, looked up, fragment)” is 54 ± 4%.
